# Data reported in PMC9578396, “Intrinsic Antibacterial Activity of Xeruborbactam In Vitro: Assessing Spectrum and Mode of Action” (Antimicrobial Agents and Chemotherapy, 2022).
# Values joined by “and” are separate entries in the source; they are usually repeats but may differ in a detail not shown here. Equal entries are not always repeated. Where two headings read alike, the source gives them in different places.
# What was measured:
# Assay type in all cases: cell-based
# [1] = tested on: Enterococcus faecalis; experiment: MIC, Enterococcus faecalis
# Text: (§1) Bacterial isolates were subjected to broth microdilution susceptibility testing, performed according to Clinical and Laboratory Standards Institute (CLSI) methods ([46]), using panels prepared in-house. Meropenem was purchased from Sandoz, and all other antibiotics were from Sigma-Aldrich. Xeruborbactam was synthesized at Qpex Biopharma, San Diego, CA. Avibactam was purchased from eNovation Chemicals LLC, Bridgewater, NJ, USA; zidebactam was from MedKoo Biosciences, Inc., Morrisville, NC, and nacubactam was from Advanced ChemBlocks, Hayward, CA. Durlobactam was synthesized at Acme Bioscience, Palo Alto, CA, USA.
# [2] = tested on: Pseudomonas aeruginosa; experiment: Broth microdilution MIC (CLSI), Pseudomonas aeruginosa; conditions: for MIC50 / MIC90 / MIC: Pseudomonas aeruginosa; for MIC50 / MIC90: 506 isolates
# In short: (§2)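 MICs by CLSI broth microdilution in in-house panels. Strains tested were engineered strains carrying porin and efflux mutation combinations, KPC-producing clinical isolates and derivatives cured of KPC plasmids, and KPC-producing clinical isolates enriched for porin mutations.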
# [3] = tested on: Staphylococcus aureus; experiment: MIC, Staphylococcus aureus (MSSA, MRSA); conditions: for MIC: read-out: MIC
# Text: as §1
# [4] = tested on: Escherichia coli; experiment: Broth microdilution MIC (CLSI), Escherichia coli
# In short: as §2
# [5] = Staphylococcus aureus, MSSA, n = 12
compound,measurement,setting,value
O=C(O)c1c(F)ccc2c1OB(O)[C@@H]1C[C@H]21 [Xeruborbactam],MIC,"[1]; all the E. faecalis strains, n = 16",> 32 µg/mL
same,MIC,[1]; efs003,> 32 µg/mL
same,MIC,[1]; efs004,> 32 µg/mL
same,MIC,[1]; efs005,> 32 µg/mL
same,MIC,[1]; efs006,> 32 µg/mL
same,MIC,[1]; efs007,> 32 µg/mL
same,MIC,[1]; efs026,> 32 µg/mL
same,MIC,[1]; efs071,> 32 µg/mL
same,MIC,[1]; efs072,> 32 µg/mL
same,MIC,[1]; efs073,> 32 µg/mL
same,MIC,[1]; efs090,> 32 µg/mL
same,MIC,[1]; efs091,> 32 µg/mL
same,MIC,[1]; efs092,> 32 µg/mL
same,MIC,[1]; efs093,> 32 µg/mL
same,MIC,[1]; efs094,> 32 µg/mL
same,MIC,[1]; efs095,> 32 µg/mL
same,MIC,[1]; efs096,> 32 µg/mL
same,isolates with MICs of ≥64 μg/mL,[2]; 506 P. aeruginosa clinical isolates,94%
same,MIC50,[2],>64 µg/mL
same,MIC90,[2],>64 µg/mL
same,MIC50,[2]; read-out: MIC50,> 64 µg/mL
same,MIC90,[2]; read-out: MIC90,> 64 µg/mL
same,MIC,"[2]; PAM1154 (oprM::Hg), xeruborbactam 0 µg/ml",16 µg/mL
same,MIC,"[2]; PAO1, Pseudomonas aeruginosa PAM3034 (PAO1), read-out: MIC",16 µg/mL and 72 µM
same,MIC,"[2]; after inactivation of MexAB-OprM, read-out: MIC",16 µg/mL
same,MIC,"[2]; before inactivation of MexAB-OprM (wild type), read-out: MIC",256 µg/mL
same,MIC,"[2]; strain 1089003, alone, read-out: MIC",16 µg/mL
same,MIC,"[2]; strain 1097436, alone, read-out: MIC",8 µg/mL
same,MIC,"[2]; strain 1098084, alone, read-out: MIC",16 µg/mL
same,MIC,"[2]; strain 1098916, alone, read-out: MIC",32 µg/mL
same,MIC,"[2]; strain 1100407, alone, read-out: MIC",32 µg/mL
same,MIC,"[2]; strain 1104100, alone, read-out: MIC",16 µg/mL
same,MIC,"[2]; strain 1104168, alone, read-out: MIC",32 µg/mL
same,MIC,"[2]; strain 1104284, alone, read-out: MIC",8 µg/mL
same,MIC,"[2]; strain 1106973, alone, read-out: MIC",16 µg/mL
same,MIC,"[2]; strain 1108885, alone, read-out: MIC",16 µg/mL
same,MIC,"[2]; strain 1109744, alone, read-out: MIC",16 µg/mL
same,MIC,"[2]; strain 1113238, alone, read-out: MIC",8 µg/mL
same,MIC,"[2]; strain 1113634, alone, read-out: MIC",8 µg/mL
same,MIC,"[2]; strain 1114012, alone, read-out: MIC",8 µg/mL
same,MIC,"[2]; strain 1116835, alone, read-out: MIC",8 µg/mL
same,MIC,"[2]; strain 1116849, alone, read-out: MIC",16 µg/mL
same,MIC,"[2]; strain 1118234, alone, read-out: MIC",16 µg/mL
same,MIC,"[2]; strain 1119418, alone, read-out: MIC",8 µg/mL
same,MIC,"[2]; strain 1124145, alone, read-out: MIC",16 µg/mL
same,MIC,"[2]; strain 1125954, alone, read-out: MIC",32 µg/mL
same,MIC,"[2]; strain 1125996, alone, read-out: MIC",32 µg/mL
same,MIC,"[2]; strain 1126521, alone, read-out: MIC",8 µg/mL
same,MIC,"[2]; strain 1126957, alone, read-out: MIC",8 µg/mL
same,MIC,"[2]; strain 1126982, alone, read-out: MIC",32 µg/mL
same,MIC,"[2]; strain 1128636, alone, read-out: MIC",32 µg/mL
same,MIC,"[2]; strain 1128674, alone, read-out: MIC",16 µg/mL
same,MIC,"[2]; strain 1130387, alone, read-out: MIC",16 µg/mL
same,MIC,"[2]; strain 1130447, alone, read-out: MIC",16 µg/mL
same,MIC,"[2]; strain 1130475, alone, read-out: MIC",16 µg/mL
same,MIC,"[2]; strain 1131123, alone, read-out: MIC",8 µg/mL
same,MIC,"[2]; strain PAM1020, wild type, read-out: MIC",256 µg/mL
same,MIC,"[2]; strain PAM1032, nalB (MexAB-OprM overexpression)",> 256 µg/mL
same,MIC,"[2]; strain PAM1033, nfxB (MexCD-OprJ overexpression)",128 µg/mL
same,MIC,"[2]; strain PAM1034, nfxC (MexEF-OprN overexpression)",256 µg/mL
same,MIC,"[2]; strain PAM1106, mexA::Tet",16 µg/mL
same,MIC,"[2]; strain PAM1154 (Fig. 6), read-out: MIC",32 µg/mL
same,MIC,"[2]; strain PAM1154, oprM::Hg",16 µg/mL
same,MIC,"[2]; strain PAM1154, read-out: MIC",16 µg/mL
same,fold reduction of MIC,[2]; inactivation of MexAB-OprM,16 fold
same,fold MIC decrease,[2]; mexCD-oprJ-overexpressing strain PAM1033,2 fold
same,MIC range,"[3]; MSSA, n = 12",4 to 8 µg/mL
same,MIC,"[3]; Staphylococcus aureus, ATCC 29213 / MSSA, ATCC 29213, MSSA",4 µg/mL
same,MIC,"[3]; Staphylococcus aureus, MRSA, all the MRSA strains, n = 13",> 32 µg/mL
same,MIC,"[3]; Staphylococcus aureus, MRSA, sa001, MRSA",> 32 µg/mL
same,MIC,"[3]; Staphylococcus aureus, MRSA, sa010, MRSA",> 32 µg/mL
same,MIC,"[3]; Staphylococcus aureus, MRSA, sa013, MRSA",> 32 µg/mL
same,MIC,"[3]; Staphylococcus aureus, MRSA, sa014, MRSA",> 32 µg/mL
same,MIC,"[3]; Staphylococcus aureus, MRSA, sa148, MRSA",> 32 µg/mL
same,MIC,"[3]; Staphylococcus aureus, MRSA, sa150, MRSA",> 32 µg/mL
same,MIC,"[3]; Staphylococcus aureus, MRSA, sa151, MRSA",> 32 µg/mL
same,MIC,"[3]; Staphylococcus aureus, MRSA, sa152, MRSA",> 32 µg/mL
same,MIC,"[3]; Staphylococcus aureus, MRSA, sa153, MRSA",> 32 µg/mL
same,MIC,"[3]; Staphylococcus aureus, MRSA, sa278, MRSA",> 32 µg/mL
same,MIC,"[3]; Staphylococcus aureus, MRSA, sa279, MRSA",> 32 µg/mL
same,MIC,"[3]; Staphylococcus aureus, MRSA, sa280, MRSA",> 32 µg/mL
same,MIC,"[3]; Staphylococcus aureus, MRSA, sa281, MRSA",> 32 µg/mL
same,MIC,"[3]; Staphylococcus aureus, MSSA, sa002, MSSA",8 µg/mL
same,MIC,"[3]; Staphylococcus aureus, MSSA, sa003, MSSA",8 µg/mL
same,MIC,"[3]; Staphylococcus aureus, MSSA, sa004, MSSA",8 µg/mL
same,MIC,"[3]; Staphylococcus aureus, MSSA, sa005, MSSA",8 µg/mL
same,MIC,"[3]; Staphylococcus aureus, MSSA, sa006, MSSA",8 µg/mL
same,MIC,"[3]; Staphylococcus aureus, MSSA, sa007, MSSA",8 µg/mL
same,MIC,"[3]; Staphylococcus aureus, MSSA, sa008, MSSA",8 µg/mL
same,MIC,"[3]; Staphylococcus aureus, MSSA, sa009, MSSA",8 µg/mL
same,MIC,"[3]; Staphylococcus aureus, MSSA, sa011, MSSA",8 µg/mL
same,MIC,"[3]; Staphylococcus aureus, MSSA, sa012, MSSA",8 µg/mL
same,MIC,"[3]; Staphylococcus aureus, MSSA, sa015, MSSA",8 µg/mL
same,MIC50,[3]; [5],8 µg/mL
same,MIC90,[3]; [5],8 µg/mL
same,MIC,"[4]; EC1078, PBP2 same as MG1655, PBP3 I332V",32
same,MIC,"[4]; EC1081, PBP2 same as MG1655, PBP3 Q227H",8
same,MIC,"[4]; EC1085, PBP2 T331P, PBP3 A233T I332V",8
same,MIC,"[4]; EC1088, PBP2 A308G, PBP3 same as MG1655",8
same,MIC,"[4]; EC1097, PBP2 M574I, PBP3 Q227H",8
same,MIC,"[4]; EC1098, PBP2 V217M, PBP3 YRIN ins, I532L",8
same,MIC,"[4]; EC1103, PBP2 same as MG1655, PBP3 YRIN ins, Q227H, E349K, I532L",8
same,MIC,"[4]; EC1105, PBP2 A543T, PBP3 YRIN ins, Q227H, E349K, I532L",8
same,MIC,"[4]; EC1119, PBP2 same as MG1655, PBP3 YRIN ins, Q227H, E349K, I532L",32
same,MIC,"[4]; EC1121, PBP2 V217M, PBP3 YRIN ins, E349K, I532L",8
same,MIC50,"[4]; Escherichia coli, 334 isolates",8 µg/mL
same,MIC90,"[4]; Escherichia coli, 334 isolates",16 µg/mL
same,MIC range,"[4]; Escherichia coli, 334 isolates",2 to 32 µg/mL
same,MIC,"[4]; Escherichia coli, Escherichia coli isolates, read-out: highest MIC observed",32 µg/mL
same,MIC,"[4]; Escherichia coli, MG1655, Escherichia coli ECM5497 (MG1655), read-out: MIC",72 µM and 16 µg/mL
same,MIC,"[4]; Escherichia coli, clinical isolate EC1078, OmpK35 NF, OmpK36 NF, read-out: MIC",32 µg/mL
same,MIC,"[4]; Escherichia coli, clinical isolate EC1081, OmpK35 FN, OmpK36 FN, read-out: MIC",8 µg/mL
same,MIC,"[4]; Escherichia coli, clinical isolate EC1085, OmpK35 FN, OmpK36 FN, read-out: MIC",8 µg/mL
same,MIC,"[4]; Escherichia coli, clinical isolate EC1088, OmpK35 FN, OmpK36 FN, read-out: MIC",8 µg/mL
same,MIC,"[4]; Escherichia coli, clinical isolate EC1097, OmpK35 FN, OmpK36 FN, read-out: MIC",8 µg/mL
same,MIC,"[4]; Escherichia coli, clinical isolate EC1098, OmpK35 NF, OmpK36 FN, read-out: MIC",8 µg/mL
same,MIC,"[4]; Escherichia coli, clinical isolate EC1119, OmpK35 NF, OmpK36 NF, read-out: MIC",32 µg/mL
same,MIC,"[4]; Escherichia coli, clinical isolate EC1121, OmpK35 NF, OmpK36 FN, read-out: MIC",8 µg/mL
same,MIC,"[4]; Escherichia coli, strain ECM5497, wild type, read-out: MIC",8 µg/mL
same,MIC,"[4]; Escherichia coli, strain ECM6001, ΔacrB",8 µg/mL
same,MIC,"[4]; Escherichia coli, strain ECM6502, marR (AcrAB overexpression)",8 µg/mL
same,MIC,"[4]; Escherichia coli, strain ECM5497, read-out: MIC",8 µg/mL
